Laboratory results published in patent publication US5004758A, “Water soluble camptothecin analogs useful for inhibiting the growth of animal tumor cells” (priority 1988, dated 1991).
Values joined by “and” are separate entries in the source; they are usually repeats but may differ in a detail not shown here. Identical values can stand only once. Counter-ions that a name gives are not always drawn. Like-named read-outs stand apart in the source and are kept apart here.

Key:
in vivo [1] = settings: mouse, ip
Method: For in vivo studies L1210 cells were implanted i.p. (10^6 per mouse)
and drugs were administered i.p. on Days 1 and 5. Increase in lifespan
(ILS) was based on median survival time of groups of 6 mice treated at th
maximally tolerated dose of the drugs.

P388/Mitoxantrone = experiment: ip P388/Mitoxantrone multidrug resistant subline in mice; settings: for ILS / NCK (net tumor cell kill): P388/Mitoxantrone, ip, Days 1 and 5
Method: Increase in lifespan (ILS) is based on median survival time of groups of 6 mice. Net tumor cell kill (NCK) is calculated from median survival time by standard methods, since survival time is a linear function of the log tumor cell burden.
For the leukemias, these tumors are maintained in DBA/2 mice. […] The leukemias and the M5076 sarcoma are serially transplanted i.p. as ascites cell suspensions while the B16 melanoma lines and the colon carcinoma 26 are serially transplanted as s.c. solid tumors.
For therapeutic trials, tumors are aseptically removed from donor mice and prepared as suspensions for implantation ip into test animals. […] The test animals for the other tumor models are syngeneic female F1 hybrid B6D2F1 mice (C57B1/6 x DBA/2). The inoculum level varies with the type of tumor: P388 leukemia is inoculated at 10^6 cells per mouse, L1210 leukemia at 10^5 or 10^6 cells per mouse, M5076 sarcoma at 5×10^6 cells per mouse. […] After tumor inoculation, mice randomized to treatment groups comprised of 6-8 mice each. In each experiment, there are three groups of untreated control mice. Drugs are dissolved or suspended in appropriate aqueous vehicles and given by a variety of routes and schedules of administration over a range of dose levels. Animals are housed in shoebox cages and are monitored daily for mortality for 30 (L1210), 45 (P388) or 60 (B16, M5076, colon 26) days.

[2] = tested on: sc colon adenocarcinoma 38
Method: Inhibition of tumor growth (TGI) is based on mean tumor volume of groups of 7 or 8 mice relative to untreated controls. Tumors were measured between Days 12 and 19 (except Day 24 for Colon 51 and Day 31 for Colon 38).
Tumors used in these studies are maintained by serial transplantation in syngeneic strains of mice C57BL/6 for Lewis lung carcinoma, B16 melanoma and its F10 subline, M5076 sarcoma and colon adenocarcinoma 38; BALB/c for colon carcinoma 26, ADJ-PC6 plasmacytoma Madison lung carcinoma and colon adenocarcinoma 51, C3H for mammary adenocarcinoma 16/c. With the exception of the M5076 sarcoma, which is maintained as a i.p ascites cell suspension, all of the tumors were serially transplanted as s.c. solid tumors.
For therapeutic trials, tumors were aseptically removed from donor mice and prepared for implantation s.c. into test animals. The test animals for Lewis lung carcinoma, B16 melanoma and its F10 subline, M5076 sarcoma and colon adenocarcinoma 38 are syngeneic female F1 hybrid B6D2F mice (C57B1/6×DBA/2). ADJ-PC6 plasmacytoma and colon carcinoma 26 are evaluated in female BALB/c mice. Madison lung carcinoma and colon adenocarcinoma 51 are evaluated in syngeneic female F1 hybrid CD2F1 mice (BALB/c×DBA/2). Mammary adenocarcinoma 16/c is evaluated in female C3H mice. The inoculum varies with the tumor. Colon adenocarcinomas 38 is implanted as 2 mm fragments by trochar. M5076 sarcoma and ADJ-PC6 plasmacytoma are implanted as cell suspensions at 5×10^6 and 2×10^6 cells per mouse, respectively. Colon carcinoma 26, colon adenocarcinoma 51, Lewis lung carcinoma, Madison lung carcinoma and B16 melanoma and its F10 subline are implanted as tumor breis prepared as described above in a volume of 0.5 ml. The brei concentration was 10 percent (w:v) except for colon carcinoma 26 for which the brei concentration was 5 percent (w:v). After tumor inoculation, mice are randomized to treatment groups of 7 or 8 mice. In each experiment, there are three groups of untreated control mice.
Drugs are dissolved or suspended in appropriate aqueous vehicles and given by a variety of routes of administration and treatment schedules over a range of dosage levels. Animals are housed in shoebox cages and are monitored daily for mortality. […] Time for tumor measurement is dependent on the different rates of tumor growth of the different tumors: the most rapidly growing tumors such as the Lewis and Madison lung tumors, B16 melanoma and its F10 subline were measured between Days 12 and 16. The slower growing tumors were measured at later time points--17 days for M5076 sarcoma, 16 or 19 days for mammary adenocarcinoma 16/c, 19 days for ADJ-PC6 plasmacytoma and colon carcinoma 26, 24 days for colon adenocarcinoma 51, and 31 days for colon adenocarcinoma 38.

in vivo [3] = settings: mouse, ip; remark: listed apart in the source
From the text: (§3) Tumors used in these studies--P388 leukemia and its doxorbicin--and mitoxanrone-resistant sublines, L1210 leukemia, B16 melanoma, B16 melanoma/F10 subline, M5076 sarcoma and colon carcinoma 26--are maintained by serial transplantation in syngeneic strains of mice. For the leukemias, these tumors are maintained in DBA/2 mice. The M5076 sarcoma, the B16 melanoma and its F10 subline are maintained in C57B1/6 mice and the colon sarcinoma 26 is maintained in BALB/c mice. The leukemias and the M5076 sarcoma are serially transplanted i.p. as ascites cell suspensions while the B16 melanoma lines and the colon carcinoma 26 are serially transplanted as s.c. solid tumors.
(§4) For therapeutic trials, tumors are aseptically removed from donor mice and prepared as suspensions for implantation ip into test animals. The test animals for the colon carcinoma 26 are female BALB/c mice (20-25 gm). The test animals for the other tumor models are syngeneic female F1 hybrid B6D2F1 mice (C57B1/6 x DBA/2). The inoculum level varies with the type of tumor: P388 leukemia is inoculated at 10^6 cells per mouse, L1210 leukemia at 10^5 or 10^6 cells per mouse, M5076 sarcoma at 5×10^6 cells per mouse. For implantation of the B16 melanoma lines and the colon carcinoma 26, s.c. tumors from donor mice are minced and homogenized in loose fitting teflon glass homogenizer to give a tumor brei. The inoculum levels are 0.5 ml of a 10 percent (w:v) brei of the B16 melanoma lines and 0.5 ml of a 5 percent (w:v) brei of colon carcinoma 26. After tumor inoculation, mice randomized to treatment groups comprised of 6-8 mice each. In each experiment, there are three groups of untreated control mice. Drugs are dissolved or suspended in appropriate aqueous vehicles and given by a variety of routes and schedules of administration over a range of dose levels. Animals are housed in shoebox cages and are monitored daily for mortality for 30 (L1210), 45 (P388) or 60 (B16, M5076, colon 26) days.

in vivo [4] = settings: mouse, ip; remark: listed apart in the source
sc Lewis lung carcinoma = format: in vivo, mouse; settings: mouse, in vivo
From the text: (§1) The inoculum varies with the tumor.

Aqueous solubility = format: physicochemical
sc colon carcinoma 26 = experiment: sc-implanted colon carcinoma 26 in mice; format: in vivo, mouse; settings: for Tumor growth inhibition (TGI): sc Colon 26, B/ip (Days 1, 5, 9 and 13)
From the text: as §1

in vivo [5] = settings: mouse, ip; remark: listed apart in the source
From the text: as §3, §4

[6] = tested on: NRK52E (rat kidney epithelium); experiment: Cytotoxicity to normal rodent cells in culture; format: cell-based; settings: NRK-52E
Method: (§2) The cell lines are used and maintained as monolayer cultures in Minimal Essential Media (Grand Island Biological Co., Grand Island, N.Y.) supplemented with 10% fetal calf serum in a 5% CO2 humidified incubator at 37° C. Various concentrations of a Formula (I) compound under sterile conditions were allowed to react for 2 hours followed by aspiration of medium or were exposed continuously. Plates are incubated for 7 days at 37° C. in a CO2 incubator. Medium was aspirated and cells were fixed and stained with ethanol and Geisma stain. The surviving cell population was determined by scanning the plates with an image analyzer. The percent inhibition of proliferation was determined relative to cells incubated in the absence of drug and the 50 percent inhibitory concentration (IC50) was determined by interpolation.

[7] = tested on: IEC-6 (rat intestinal epithelium); experiment: Cytotoxicity to normal rodent cells in culture; format: cell-based
Method: as §2

ip M5076 sarcoma = experiment: ip-implanted M5076 sarcoma in mice; format: in vivo, mouse
From the text: as §3, §4

[8] = 2 hr exposure, read-out: IC50 2 Hr. Exposure
[9] = continuous exposure, read-out: IC50 Continuous Exposure
[10] = ip M5076, single dose on Days 1, 5, 9 and 13 ip, additional study
[11] = ip M5076, single dose on Days 1, 5 and 9 ip, additional study

## CC[C@@]1(O)C(=O)OCc2c1cc1n(c2=O)Cc2cc3c(CN(C)C)c(O)ccc3nc2-1 [Compound No. 1S, (20 S) 9-Dimethylaminomethyl-10-hydroxycamptothecin Acetate Salt]
In vivo [1]
  MTD: 15 mg/kg
P388/Mitoxantrone; 3.2 mg/kg
  ILS: 29%
  NCK (net tumor cell kill): 0 log
P388/Mitoxantrone; 5.4 mg/kg
  ILS: 57%
  NCK (net tumor cell kill): 2.1 log
P388/Mitoxantrone; 9 mg/kg
  ILS: 79%
  NCK (net tumor cell kill): 3.6 log
P388/Mitoxantrone; 15 mg/kg
  NCK (net tumor cell kill): 5.7 log
P388/Mitoxantrone; 25 mg/kg
  ILS: toxic
P388/Mitoxantrone; P388/mitoxantrone in mice
  sensitivity / resistance of subline: retained sensitivity
[2]; mouse, in vivo
  inhibition at two dose levels: > 90
[2]; mouse, in vivo, 0.78 mg/kg
  Mice without Palpable Tumors: 2/7
[2]; mouse, in vivo, 1.3 mg/kg
  Mice without Palpable Tumors: 4/7
[2]; mouse, in vivo, 2.2 mg/kg
  Mice without Palpable Tumors: 4/7
[2]; mouse, in vivo, 3.6 mg/kg
  Mice without Palpable Tumors: 6/7
[2]; mouse, in vivo, 6 mg/kg
  Mice without Palpable Tumors: 5/7
[2]; mouse, in vivo, sc
  Increase in Lifespan (ILS) or Inhibition of Tumor Growth (TGI): 96 % TGI
[2]; sc Colon 38, G/ip (Days 3, 10, 17 and 24), 3.1 mg/kg/injection
  Tumor growth inhibition (TGI): 0%
[2]; sc Colon 38, G/ip (Days 3, 10, 17 and 24), 5.2 mg/kg/injection
  Tumor growth inhibition (TGI): 0%
[2]; sc Colon 38, G/ip (Days 3, 10, 17 and 24), 8.6 mg/kg/injection
  Tumor growth inhibition (TGI): 55%
[2]; sc Colon 38, G/ip (Days 3, 10, 17 and 24), 14 mg/kg/injection
  Tumor growth inhibition (TGI): 78%
[2]; sc Colon 38, G/ip (Days 3, 10, 17 and 24), 24 mg/kg/injection
  Tumor growth inhibition (TGI): 89%
[2]; sc Colon 38, G/ip, 3.1 mg/kg/injection
  Mice without Palpable Tumors: 2/7
[2]; sc Colon 38, G/ip, 5.2 mg/kg/injection
  Mice without Palpable Tumors: 1/7
[2]; sc Colon 38, G/ip, 8.6 mg/kg/injection
  Mice without Palpable Tumors: 3/7
[2]; sc Colon 38, G/ip, 14 mg/kg/injection
  Mice without Palpable Tumors: 5/8
[2]; sc Colon 38, G/ip, 24 mg/kg/injection
  Mice without Palpable Tumors: 4/7
[2]; sc Colon 38, H/ip (every 3 hours x4 on Days 3, 10, 14 and 24), 0.78 mg/kg/injection
  Tumor growth inhibition (TGI): 53%
[2]; sc Colon 38, H/ip (every 3 hours x4 on Days 3, 10, 14 and 24), 1.3 mg/kg/injection
  Tumor growth inhibition (TGI): 68%
[2]; sc Colon 38, H/ip (every 3 hours x4 on Days 3, 10, 14 and 24), 2.2 mg/kg/injection
  Tumor growth inhibition (TGI): 74%
[2]; sc Colon 38, H/ip (every 3 hours x4 on Days 3, 10, 14 and 24), 3.6 mg/kg/injection
  Tumor growth inhibition (TGI): 93%
[2]; sc Colon 38, H/ip (every 3 hours x4 on Days 3, 10, 14 and 24), 6 mg/kg/injection
  Tumor growth inhibition (TGI): 96%
In vivo [3]
  MTD: 15 mg/kg
In vivo [4]
  MTD: 15 mg/kg
Sc Lewis lung carcinoma
  bioavailability upon oral administration: excellent bioavailability upon oral administration
Sc Lewis lung carcinoma; 3.2 mg/kg
  Tumor growth inhibition (TGI): 31%
Sc Lewis lung carcinoma; 5.4 mg/kg, Acetate Salt
  Mice without Palpable Tumors: 2/8 and 4/8
  Tumor growth inhibition (TGI): 68% and 87%
Sc Lewis lung carcinoma; 5.8 mg/kg
  Tumor growth inhibition (TGI): 51%
Sc Lewis lung carcinoma; 9 mg/kg
  longterm, tumorfree survivors: 2/8
Sc Lewis lung carcinoma; 9 mg/kg, Acetate Salt
  Tumor growth inhibition (TGI): 99% and 93%
Sc Lewis lung carcinoma; 9.7 mg/kg
  Mice without Palpable Tumors: 2/8
  Tumor growth inhibition (TGI): 89%
Sc Lewis lung carcinoma; 15 mg/kg
  Tumor growth inhibition (TGI): 95%
  longterm, tumorfree survivors: 4 of 8
Sc Lewis lung carcinoma; 15 mg/kg, Acetate Salt
  Mice without Palpable Tumors: 8/8 and 3/8
  Tumor growth inhibition (TGI): 100%
  longterm, tumorfree survivors: 4/8
Sc Lewis lung carcinoma; 16 mg/kg
  Mice without Palpable Tumors: 1/8
  Tumor growth inhibition (TGI): 90%
Sc Lewis lung carcinoma; 25 mg/kg
  Mice without Palpable Tumors: 5/8
  Tumor growth inhibition (TGI): toxic
Sc Lewis lung carcinoma; 27 mg/kg
  Mice without Palpable Tumors: 4/8
Sc Lewis lung carcinoma; 45 mg/kg
  Tumor growth inhibition (TGI): toxic
Sc Lewis lung carcinoma; sc
  Increase in Lifespan (ILS) or Inhibition of Tumor Growth (TGI): Curative
Aqueous solubility
  solubility in water / aqueous vehicles: water-soluble
Sc colon carcinoma 26; mouse, in vivo, sc
  inhibition of tumor growth at the maximally tolerated dose: > 70
Sc colon carcinoma 26; 5 mg/kg/injection
  Tumor growth inhibition (TGI): 39%
Sc colon carcinoma 26; 10 mg/kg/injection
  Tumor growth inhibition (TGI): 72%
Sc colon carcinoma 26; 20 mg/kg/injection
  Tumor growth inhibition (TGI): toxic
Sc colon carcinoma 26; sc Colon Carcinoma 26, optimal doses and optimal schedules
  Increase in Lifespan (ILS) or Inhibition of Tumor Growth (TGI): 72 % TGI
In vivo [5]
  MTD: 15 mg/kg
[6]; [8]
  IC50: 1.2 µg/mL
[6]; [9]
  IC50: 0.052 µg/mL
[7]; [8]
  IC50: 3.9 µg/mL
[7]; [9]
  IC50: 0.017 µg/mL
Ip M5076 sarcoma; ip M5076, C/ip (every 3 hours x4 on Days 1, 5 and 9), 0.62 mg/kg/injection
  Increase in lifespan (ILS): 70%
Ip M5076 sarcoma; ip M5076, C/ip (every 3 hours x4 on Days 1, 5 and 9), 1.2 mg/kg/injection
  Increase in lifespan (ILS): 75%
Ip M5076 sarcoma; ip M5076, C/ip (every 3 hours x4 on Days 1, 5 and 9), 5 mg/kg/injection
  Increase in lifespan (ILS): toxic
Ip M5076 sarcoma; ip M5076, C/ip (every 3 hours x4 on Days 1, 5 and 9), 10 mg/kg/injection
  Increase in lifespan (ILS): toxic
Ip M5076 sarcoma; ip M5076, C/sc (every 3 hours x4 on Days 1, 5 and 9), 0.62 mg/kg/injection
  Increase in lifespan (ILS): 36%
Ip M5076 sarcoma; ip M5076, C/sc (every 3 hours x4 on Days 1, 5 and 9), 1.2 mg/kg/injection
  Increase in lifespan (ILS): 70%
Ip M5076 sarcoma; ip M5076, C/sc (every 3 hours x4 on Days 1, 5 and 9), 5 mg/kg/injection
  Increase in lifespan (ILS): toxic
Ip M5076 sarcoma; ip M5076, C/sc (every 3 hours x4 on Days 1, 5 and 9), 10 mg/kg/injection
  Increase in lifespan (ILS): toxic
Ip M5076 sarcoma; [10]
  ILS: 71%
  cures: 1/8
Ip M5076 sarcoma; [11]
  ILS: 75%
  cures: 1/8
Ip M5076 sarcoma; mouse, in vivo
  ILS: 57
Ip M5076 sarcoma; mouse, in vivo, 1.2 mg/kg
  Long-Term Survivors: 1/8
Ip M5076 sarcoma; mouse, in vivo, ip, 0.62 mg/kg
  Long-Term Survivors: 1/8
Ip M5076 sarcoma; mouse, in vivo, ip, 1.2 mg/kg
  Long-Term Survivors: 1/8
